Data on ten compounds can be found in article PMC6100043, “Development of Thiophene Compounds as Potent Chemotherapies for the Treatment of Cutaneous Leishmaniasis Caused by Leishmania major” (Molecules : A Journal of Synthetic Chemistry and Natural …, 2018).

Like-named read-outs stand apart in the source and are kept apart here.

As usually defined, the CC50 is the concentration giving 50% cytotoxicity. What is called EC50 is the midpoint of the concentration-response curve. For orientation: half-life means how long it takes for the measured level to halve.

Data set [1] in a line: Mammalian cell cytotoxicity (alamarBlue for 5A; PI/Hoechst HCIA for 5D, 5E) in LLC-MK2. Particulars: rhesus monkey, LLC-MK2 kidney epithelial cells. On the technique in general: Resazurin is reduced to fluorescent resorufin, in cell work by metabolically active cells.
Data set [2] concerns monkey kidney cells (LLC-MK2). The description is as above. The following applies: for S.I. LLC-MK2 (CC50 mammalian cells)/(EC50 in L. major-luc promastigotes): LLC-MK2 vs L. major-luc promastigotes.
Data set [3] is described as follows: Mammalian cell cytotoxicity (alamarBlue for 5A; PI/Hoechst HCIA for 5D, 5E) in IPΦ. Particulars: BALB/c, mouse, intraperitoneal mouse macrophages (IPΦ).
Data set [4] concerns intraperitoneal mouse macrophages (IPΦ). Described as above. Particulars: for S.I. IPΦ (CC50 mammalian cells)/(EC50 in L. major-luc promastigotes): IPΦ vs L. major-luc promastigotes.
The test system of data set [5] is L. major-luc promastigotes. The data set is described as follows: Luciferase assay, viability of L. major-luc promastigotes. The data set is classed as cell-based, Leishmania major. The following applies: 72 h at 28 °C, 2 × 10^6 promastigotes per mL, luciferase activity.
In data set [6] the test system is L. major intracellular amastigotes. The experiment in a line: High-Content Imaging Assay, proliferation of intracellular amastigotes in infected IPΦ. The class given is cell-based, Leishmania major. Particulars: for number of infected cells compared to control treated with 1% DMSO: 2.5 µM, infected IPΦ; for number of infected cells compared to control treated with 1% DMSO / inhibition at 0.625 µM: 48 h; for inhibition at 0.625 µM: Leishmania major, read-out: inhibition of the proliferation of intracellular amastigotes.

In data set [7] the test system is L. major promastigotes. The experiment in a line: Measurement of reactive oxygen species levels (H2DCFDA). The data set is classed as cell-based, Leishmania major. Particulars: 5D at EC50, 24 h incubation + 7 h reading (31 h), H2DCFDA 10 µM.
Details of data set [8]: method as in PMID 25365529, PMID 26230675. Particulars: cited from earlier work.
Setting [9] is: read-out: EC50 Leishmania major-luc promastigotes.

Compound `CCOC(=O)c1c(NC(=O)c2ccc(C(F)(F)F)cc2)sc2c1CC(C)(C)NC2(C)C` [Compound 5A, Ethyl 5,5,7,7-tetramethyl-2-(4-(trifluoromethyl)benzamido)-4,5,6,7-tetrahydrothieno[2,3-c]pyridine-3-carboxylate] showed a CC50 at 72 h in data set [1] of 17.7 ± 1.12 µM. Moreover, in data set [2], the “S.I. LLC-MK2 (CC50 mammalian cells)/(EC50 in L. major-luc promastigotes)” value is 52.85. In addition, in data set [3], the 50% cytotoxic concentration (CC50) at 48 h is about 10.4 µM. Further, in data set [4], the “S.I. IPΦ (CC50 mammalian cells)/(EC50 in L. major-luc promastigotes)” value (shortened to “S.I. IPΦ”) is listed as 30.50. For the same compound, in data set [4] (at 5 and 10 µM, in HCIA of infected IPΦ, 48 h), the “cytotoxicity for IPΦ” value is recorded as “cytotoxic”. In addition, the half-maximal effective concentration (EC50) in data set [5] (setting [9]) was about 0.341 µM; in data set [5] (Leishmania major, 72 h), about 0.34 µM.
Compound `CCOC(=O)c1c(NC(=O)c2ccccc2C(F)(F)F)sc2c1CC(C)(C)NC2(C)C` [Compound 5B, Ethyl-5,5,7,7-tetramethyl-2-(2-(trifluoromethyl)benzamido)-4,5,6,7-tetrahydrothieno[2,3-c]pyridine-3-carboxylate] returned a 50% effective concentration (EC50) in data set [5] (Leishmania major, 72 h) of 5.98 ± 1.72 µM.
`CCOC(=O)c1c(NC(=O)c2cccc(C(F)(F)F)c2F)sc2c1CC(C)(C)NC2(C)C` [Compound 5D, Ethyl-2-(2-fluoro-3-(trifluoromethyl)benzamido)-5,5,7,7-tetramethyl-4,5,6,7-tetrahydrothieno[2,3-c]-pyridine-3-carboxylate]: in data set [6], the “number of infected cells compared to control treated with 1% DMSO” value is listed as “reduced number of infected cells” and the inhibition at 0.625 µM was over 75%. The “decrease of the proliferation of the parasite (intracellular amastigotes)” value in data set [6] (infected murine macrophages, concentration not given) is reported as 80%. The half-maximal cytotoxic concentration (CC50) at 72 h in data set [1] was over 80 µM. The “toxicity against LLC-MK2” value in data set [2] (at concentrations up to 80 µM, 72 h) is given as “did not display perceptible toxicity”. Further, the “ROS levels, fold higher compared to vehicle control 1% DMSO” value in data set [7] is on record as 14.5 fold. This compound also gave a CC50 at 48 h in data set [3] of 27.9 ± 3.19 µM. Further, the “S.I. IPΦ” value in data set [4] is recorded as 310. Besides, the “selectivity compared with parent compound 5A” value in data set [4] (fold higher than 5A) is given as 10 fold.
Regarding `CCOC(=O)c1c(NC(=O)c2ccc(F)c(C(F)(F)F)c2)sc2c1CC(C)(C)NC2(C)C` [Compound 5E, Ethyl-2-(4-fluoro-3-(trifluoromethyl)benzamido)-5,5,7,7-tetramethyl-4,5,6,7-tetrahydrothieno[2,3-c]-pyridine-3-carboxylate], in data set [6], the “number of infected cells compared to control treated with 1% DMSO” value is recorded as “reduced number of infected cells” and the inhibition at 0.625 µM is over 50%. This compound had a CC50 at 72 h in data set [1] of 80 ± 4.45 µM. Further, the “S.I. LLC-MK2 (CC50 mammalian cells)/(EC50 in L. major-luc promastigotes)” value in data set [2] is 102.56. Further, the CC50 at 48 h in data set [3] amounted to 16.6 ± 1.52 µM. Besides, the “S.I. IPΦ” value in data set [4] stood at 21.27. Besides, a half-maximal effect in data set [5] (Leishmania major, 72 h) (EC50) was put at 0.78 ± 0.11 µM.
`CC1(C)Cc2c(sc(NC(=O)c3cc(Cl)ccc3C(F)(F)F)c2C(=O)O)C(C)(C)N1` [Compound 5F, 2-(5-chloro-2-(trifluoromethyl)benzamido)-5,5,7,7-tetramethyl-4,5,6,7-tetrahydrothieno[2,3-c]pyridine-3-carboxylic acid] had an EC50 in data set [5] (Leishmania major, 72 h) of over 12.5 µM.
The same measure, in the same setting: next, `CC1(C)Cc2c(sc(NC(=O)c3ccccc3C(F)(F)F)c2C(=O)O)C(C)(C)N1` [Compound 5G, 5,5,7,7-tetramethyl-2-(2-(trifluoromethyl)benzamido)-4,5,6,7-tetrahydrothieno[2,3-c]pyridine-3-carboxylic acid]: over 12.5 µM; `COC(=O)c1c(NC(=O)c2ccc(F)c(C(F)(F)F)c2)sc2c1CC(C)(C)NC2(C)C` [Compound 5H, Methyl-2-(4-fluoro-3-(trifluoromethyl)benzamido)-5,5,7,7-tetramethyl-4,5,6,7-tetrahydrothieno[2,3-c]-pyridine3-carboxylate]: 3.05 ± 0.47 µM; `COC(=O)c1c(NC(=O)c2ccccc2C(F)(F)F)sc2c1CC(C)(C)NC2(C)C` [Compound 5I, Methyl-5,5,7,7-tetramethyl-2-(2-(trifluoromethyl)benzamido)-4,5,6,7-tetrahydrothieno[2,3-c]pyridine-3-carboxylate]: 5.5 ± 1.8 µM.
As to `CCCCCCCCCCCCCCCCOP(=O)([O-])OCC[N+](C)(C)C` [Miltefosine, miltefosine], in data set [8], the half-life was 150 h.
Take “Ethyl-5,5,7,7-tetramethyl-2-(2-(trifluoromethyl)benzamido)-4,5,6,7-tetrahydrothieno[2,3-c]pyridine-3-carboxylate [Compound 5C]”: the EC50 in data set [5] (setting [9]) turned out to be 4.73 ± 0.69 µM.
